Patent US9145392B2, “Imidazole amines as modulators of kinase activity” (Merck Patent GmbH, priority 2011, dated 2015)

Assays:
His-AKT (Full Length) = His-AKT (Full Length) (Homo sapiens (Human), UniProt P31749); assay: AKT enzyme assay; format: biochemical; conditions: read-out: IC50 AKT
P70S6K (T412E mutant) = P70S6K (T412E mutant) (Homo sapiens (Human), UniProt P23443, T412E); assay: P70S6K enzyme assay; format: biochemical; conditions: read-out: IC50 p70S6K
Outline: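 Phosphorylated product and substrate peptide separated by microfluidic capillary electrophoresis (Caliper LabChip 3000), product peaks resolving before substrate.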

Chain of His-AKT (Full Length) (P31749 whole entry): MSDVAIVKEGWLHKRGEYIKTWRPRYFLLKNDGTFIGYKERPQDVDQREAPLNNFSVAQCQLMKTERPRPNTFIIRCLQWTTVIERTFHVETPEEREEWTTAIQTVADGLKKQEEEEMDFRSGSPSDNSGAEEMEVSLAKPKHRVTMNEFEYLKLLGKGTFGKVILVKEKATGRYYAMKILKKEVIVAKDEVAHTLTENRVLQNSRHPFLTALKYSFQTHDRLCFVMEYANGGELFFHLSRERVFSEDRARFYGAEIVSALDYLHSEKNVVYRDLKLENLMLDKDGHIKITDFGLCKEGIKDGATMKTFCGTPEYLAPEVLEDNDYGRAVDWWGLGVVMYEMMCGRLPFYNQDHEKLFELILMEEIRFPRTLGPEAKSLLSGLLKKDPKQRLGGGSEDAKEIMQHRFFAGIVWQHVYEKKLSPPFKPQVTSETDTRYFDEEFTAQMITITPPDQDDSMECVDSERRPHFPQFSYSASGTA
Chain of P70S6K (T412E mutant) (P23443 whole entry T412E): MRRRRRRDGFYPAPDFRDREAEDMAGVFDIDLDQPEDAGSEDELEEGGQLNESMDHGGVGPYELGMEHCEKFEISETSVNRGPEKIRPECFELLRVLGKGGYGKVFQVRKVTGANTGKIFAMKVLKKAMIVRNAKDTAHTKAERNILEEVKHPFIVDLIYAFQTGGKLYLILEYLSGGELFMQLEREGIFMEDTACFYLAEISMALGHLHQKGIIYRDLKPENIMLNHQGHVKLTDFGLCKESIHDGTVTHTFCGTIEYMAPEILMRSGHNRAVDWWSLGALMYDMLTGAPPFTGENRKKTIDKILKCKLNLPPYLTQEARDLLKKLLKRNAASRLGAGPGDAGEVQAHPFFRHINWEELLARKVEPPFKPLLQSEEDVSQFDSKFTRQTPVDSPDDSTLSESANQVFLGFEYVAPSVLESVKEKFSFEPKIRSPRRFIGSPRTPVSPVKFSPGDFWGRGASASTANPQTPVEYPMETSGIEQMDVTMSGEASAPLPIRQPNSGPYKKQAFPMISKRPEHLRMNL

Row | Compound | IC50 (His-AKT (Full Length)) | IC50 (P70S6K (T412E mutant))
1 | NC(=O)c1c(N)ncnc1N1CCC(c2nc(-c3ccc(F)c(C(F)(F)F)c3)cn2CCN2CCCC2)CC1 [Compound 331] | 15 nM | 4.6 nM
2 | CCc1cc(-c2cn(CCN3CCC3)c(C3CCN(c4ncnc(N)c4C#N)CC3)n2)ccn1 [Compound 318] | 15 nM | 1.4 nM
3 | N#Cc1c(N)ncnc1N1CCC(c2nc(-c3cccc(Cl)c3)cn2CCN2CCCC2)CC1 [Compound 311] | 8.4 nM | 2.3 nM
4 | N#Cc1c(N)ncnc1N1CCC(c2nc(-c3ccc(F)c(C(F)(F)F)c3)cn2CCNCC2CC2)CC1 [Compound 358, 4-Amino-6-{4-[1-[2-(cyclopropylmethyl-amino)-ethyl]-4-(4-fluoro-3-trifluoromethyl-phenyl)-1H-imidazol-2-yl]-piperidin-1-yl}-pyrimidine-5-carbonitrile] | 1.6 nM | 1.1 nM
5 | NC(=O)c1c(N)ncnc1N1CCC(c2nc(-c3ccc(F)c(F)c3)cn2CCN2CCC2)CC1 [Compound 328] | 140 nM | 8.1 nM
6 | CN(C)CCn1cc(-c2ccc(F)c(C(F)(F)F)c2)nc1C1CCN(c2ncnc(N)c2/C=C/C2CC2)CC1 [Compound 85, (E)-5-(2-Cyclopropylvinyl)-6-(4-(1-(2-(dimethylamino)ethyl)-4-(4-fluoro-3-(trifluoromethyl)phenyl)-1H-imidazol-2-yl)piperidin-1-yl)pyrimidin-4-amine] | 43 nM | 12 nM
7 | Nc1ncnc(N2CCC(c3nc(-c4cccc(C(F)(F)F)c4)c[nH]3)CC2)c1Br [Compound 3, 5-Bromo-6-{4-[4-(3-trifluoromethyl-phenyl)-1H-imidazol-2-yl]-piperidin-1-yl}-pyrimidin-4-ylamine] | 1700 nM | 6.2 nM
8 | CC(C)Oc1c(N)ncnc1N1CCC(c2nc(-c3ccc(F)c(Cl)c3)cn2CCN2CCCC2)CC1 [Compound 290] | 2 nM | 1.3 nM
9 | Cc1cc(-c2cn(CCNC3CCCC3)c(C3CCN(c4ncnc(N)c4C(N)=O)CC3)n2)ccc1F [Compound 391, 4-Amino-6-{4-[1-(2-cyclopentylamino-ethyl)-4-(4-fluoro-3-methyl-phenyl)-1H-imidazol-2-yl]-piperidin-1-yl}-pyrimidine-5-carboxylic acid amide] | 5.6 nM | 4 nM
10 | NC(=O)c1c(N)ncnc1N1CCC(c2nc(-c3cccc(Cl)c3)cn2CCN2CCCC2)CC1 [Compound 336] | 76 nM | 7.6 nM
11 | CC(C)CNCCn1cc(-c2ccc(F)c(C(F)(F)F)c2)nc1C1CCN(c2ncnc(N)c2C(N)=O)CC1 [Compound 373, 4-Amino-6-{4-[4-(4-fluoro-3-trifluoromethyl-phenyl)-1-(2-isobutylamino-ethyl)-1H-imidazol-2-yl]-piperidin-1-yl}-pyrimidine-5-carboxylic acid amide] | 12 nM | 2.9 nM
12 | N#Cc1c(N)ncnc1N1CCC(c2nc(-c3ccc(F)c(Cl)c3)cn2CCN2CCC2)CC1 [Compound 75, 4-Amino-6-{4-[1-(2-azetidin-1-yl-ethyl)-4-(3-chloro-4-fluoro-phenyl)-1H-imidazol-2-yl]-piperidin-1-yl}-pyrimidine-5-carbonitrile] | 1.9 nM | 1 nM
13 | C=Cc1c(N)ncnc1N1CCC(c2nc(-c3ccc(C(F)(F)F)c(F)c3)cn2CCN2CCCC2)CC1 [Compound 239] | 210 nM | 4.4 nM
14 | COc1ccc(-c2c(N)ncnc2N2CCC(c3nc(-c4ccc(F)c(C(F)(F)F)c4)cn3C)CC2)cc1 [Compound 11, 6-{4-[4-(4-Fluoro-3-trifluoromethyl-phenyl)-1-methyl-1H-imidazol-2-yl]-piperidin-1-yl}-5-(4-methoxy-phenyl)-pyrimidin-4-ylamine] | 520 nM | 4.7 nM
15 | COc1ccc(-c2cn(CCN3CCC3)c(C3CCN(c4ncnc(N)c4C#N)CC3)n2)cc1Cl [Compound 323] | 31 nM | 8.3 nM
16 | CNCCn1cc(-c2ccc(F)c(C(F)(F)F)c2)nc1C1CCN(c2ncnc(N)c2C(N)=O)CC1 [Compound 376, 4-Amino-6-{4-[4-(4-fluoro-3-trifluoromethyl-phenyl)-1-(2-methylamino-ethyl)-1H-imidazol-2-yl]-piperidin-1-yl}-pyrimidine-5-carboxylic acid amide] | 33 nM | 3.4 nM
17 | Nc1cc(N2CCC(c3nc(-c4cccc(F)c4)cn3CCN3CCCC3)CC2)ncn1 [Compound 244] | 210 nM | 25 nM
18 | NC(=O)c1c(N)ncnc1N1CCC(c2nc(-c3cccc(C(F)(F)F)c3)cn2CCN2CCCC2)CC1 [Compound 335] | 92 nM | 13 nM

Row | Compound | IC50 (His-AKT (Full Length)) | IC50 (P70S6K (T412E mutant))
19 | CCc1c(N)ncnc1N1CCC(c2nc(-c3ccc(F)c(F)c3)cn2CCN2CCC2)CC1 [Compound 282] | 24 nM | 3.8 nM
20 | C=C(C)c1c(N)ncnc1N1CCC(c2nc(-c3ccc(F)c(C(F)(F)F)c3)cn2CCN(C)C)CC1 [Compound 72, 6-{4-[1-(2-Dimethylamino-ethyl)-4-(4-fluoro-3-trifluoromethyl-phenyl)-1H-imidazol-2-yl]-piperidin-1-yl}-5-isopropenyl-pyrimidin-4-ylamine] | 15 nM | 5 nM
21 | CNc1ncnc(N2CCC(c3nc(-c4ccc(F)c(C)c4)cn3CC3CNC3)CC2)c1Cl [Compound 193, (6-{4-[1-Azetidin-3-ylmethyl-4-(4-fluoro-3-methyl-phenyl)-1H-imidazol-2-yl]-piperidin-1-yl}-5-chloro-pyrimidin-4-yl)-methyl-amine] | 5700 nM | 1300 nM
22 | CCc1c(N)ncnc1N1CCC(c2nc(-c3cccc(F)c3)cn2CCN2CCCC2)CC1 [Compound 231] | 46 nM | 3.6 nM
23 | Cn1cc(-c2ccc(F)c(C(F)(F)F)c2)nc1C1CCN(c2ncnc(N)c2C(N)=O)CC1 [Compound 37, 4-Amino-6-{4-[4-(4-fluoro-3-trifluoromethyl-phenyl)-1-methyl-1H-imidazol-2-yl]-piperidin-1-yl}-pyrimidine-5-carboxamide] | 1600 nM | 2.6 nM
24 | Cc1cc(-c2cn(CCNCC(C)C)c(C3CCN(c4ncnc(N)c4C(N)=O)CC3)n2)ccc1F [Compound 392, 4-Amino-6-{4-[4-(4-fluoro-3-methyl-phenyl)-1-(2-isobutylamino-ethyl)-1H-imidazol-2-yl]-piperidin-1-yl}-pyrimidine-5-carboxylic acid amide] | 13 nM | 5.5 nM
25 | Nc1ncnc(N2CCC(c3nc(-c4ccc(F)c(C(F)(F)F)c4)c[nH]3)CC2)c1-c1ccc(F)cc1 [Compound 44, 5-(4-Fluoro-phenyl)-6-{4-[4-(4-fluoro-3-trifluoromethyl-phenyl)-1H-imidazol-2-yl]-piperidin-1-yl}-pyrimidin-4-ylamine] | 9500 nM | 2.4 nM
26 | COc1c(N)ncnc1N1CCC(c2nc(-c3ccc(F)c(C(F)(F)F)c3)cn2CCN2CCC2)CC1 [Compound 97, 6-(4-(1-(2-(azetidin-1-yl)ethyl)-4-(4-fluoro-3-(trifluoromethyl)phenyl)-1H-imidazol-2-yl)piperidin-1-yl)-5-methoxypyrimidin-4-amine] | 6.1 nM | 2.2 nM
27 | CCc1c(N)ncnc1N1CCC(c2nc(-c3ccc(F)c(F)c3)cn2CCN2CC3(COC3)C2)CC1 [Compound 198, 6-(4-{4-(3,4-Difluoro-phenyl)-1-[2-(2-oxa-6-aza-spiro[3.3]hept-6-yl)-ethyl]-1H-imidazol-2-yl}-piperidin-1-yl)-5-ethyl-pyrimidin-4-ylamine] | 255 nM | 11 nM
28 | CCc1c(N)ncnc1N1CCC(c2nc(-c3ccc(F)cc3)cn2CCN2CCC23COC3)CC1 [Compound 204, 5-Ethyl-6-(4-{4-(4-fluoro-phenyl)-1-[2-(6-oxa-1-aza-spiro[3.3]hept-1-yl)-ethyl]-1H-imidazol-2-yl}-piperidin-1-yl)-pyrimidin-4-ylamine] | 3600 nM | 37 nM
29 | COCCNCCn1cc(-c2ccc(F)c(C(F)(F)F)c2)nc1C1CCN(c2ncnc(N)c2C#N)CC1 [Compound 364, 4-Amino-6-(4-{4-(4-fluoro-3-trifluoromethyl-phenyl)-1-[2-(2-methoxy-ethylamino)-ethyl]-1H-imidazol-2-yl}-piperidin-1-yl)-pyrimidine-5-carbonitrile] | 2.5 nM | 1.4 nM
30 | CNCCn1cc(-c2ccnc(C(F)(F)F)c2)nc1C1CCN(c2ncnc(N)c2Br)CC1 [Compound 166, 5-bromo-6-(4-(1-(2-(methylamino)ethyl)-4-(2-(trifluoromethyl)pyridin-4-yl)-1H-imidazol-2-yl)piperidin-1-yl)pyrimidin-4-amine] | 1.5 nM | 1.3 nM
31 | CC(=O)Nc1c(N)ncnc1N1CCC(c2nc(-c3ccc(F)c(C(F)(F)F)c3)cn2CCN2CCC2)CC1 [Compound 288] | 190 nM | 21 nM
32 | CCOc1c(N)ncnc1N1CCC(c2nc(-c3ccc(F)c(C)c3)cn2CCN(C)C)CC1 [Compound 293] | 1.7 nM | 1 nM
33 | COc1ccc(-c2cn(CCN3CCC3)c(C3CCN(c4ncnc(N)c4C#N)CC3)n2)cc1F [Compound 321] | 59 nM | 2.6 nM
34 | N#Cc1c(N)ncnc1N1CCC(c2nc(-c3ccc(OC(F)F)cc3)cn2CCN2CCC2)CC1 [Compound 76, 4-Amino-6-{4-[1-(2-azetidin-1-yl-ethyl)-4-(4-difluoromethoxy-phenyl)-1H-imidazol-2-yl]-piperidin-1-yl}-pyrimidine-5-carbonitrile] | 479 nM | 2.1 nM
35 | Cc1cc(-c2cn(CC3CNC3)c(C3CCN(c4ncnc(N)c4OCC(F)(F)F)CC3)n2)ccc1F [Compound 186, 6-(4-(1-(azetidin-3-ylmethyl)-4-(4-fluoro-3-methylphenyl)-1H-imidazol-2-yl)piperidin-1-yl)-5-(2,2,2-trifluoroethoxy)pyrimidin-4-amine] | 7.1 nM | 2 nM
